Results on two compounds are retold here after ChEMBL document CHEMBL1138190, “Synthesis and antibacterial activity of novel C12 vinyl ketolides” (J Med Chem, 2006).

Holding throughout (type): functional
Assay [1] concerns Enterococcus faecalis. The assay is described as follows: Antibacterial activity against Enterococcus faecalis bc11148-2.
The subject of assay [2] is Streptococcus pneumoniae. Kind of assay: Antibacterial activity against Streptococcus pneumoniae 49619.
Assay [3] has as its system Streptococcus pneumoniae. Kind of assay: Antibacterial activity against Streptococcus pneumoniae 280-962.
Assay [4] concerns Enterococcus faecalis. Kind of assay: Antibacterial activity against Enterococcus faecalis 29212.
Assay [5] concerns Staphylococcus aureus. Kind of assay: Antibacterial activity against Staphylococcus aureus 33591.
For assay [6], the system named is Haemophilus influenzae. The assay is described as follows: Antibacterial activity against Haemophilus influenzae 49247.
Assay [7] deals with Streptococcus pyogenes. The assay is described as follows: Antibacterial activity against Streptococcus pyogenes 8668.
Assay [8] has as its system Streptococcus pneumoniae. Kind of assay: Antibacterial activity against Streptococcus pneumoniae Mef 5654.
Assay [9] has as its system Staphylococcus aureus. Kind of assay: Antibacterial activity against Staphylococcus aureus 29213.
Assay [10] relates to Staphylococcus epidermidis. Kind of assay: Antibacterial activity against Staphylococcus epidermidis f50654.
For assay [11], the system named is Streptococcus pneumoniae. Kind of assay: Antibacterial activity against Streptococcus pneumoniae 297-749.
The test system of assay [12] is Streptococcus pneumoniae. Kind of assay: Antibacterial activity against Streptococcus pneumoniae Mef S 3427.
Assay [13] deals with Staphylococcus epidermidis. Kind of assay: Antibacterial activity against Staphylococcus epidermidis 14990.
The subject of assay [14] is Streptococcus pneumoniae. The assay is described as follows: Antibacterial activity against Streptococcus pneumoniae Erm 6849.
The subject of assay [15] is Haemophilus influenzae. The assay is described as follows: Antibacterial activity against Haemophilus influenzae 2762.

Converted amounts (≈) assume the structure as drawn.

Take `C=C[C@]12OC(=O)N(CCCCn3cnc(-c4ccc(NC)nc4)c3)[C@@H]1[C@@H](C)C(=O)[C@H](C)C[C@@](C)(OC)[C@H](O[C@@H]1O[C@H](C)C[C@H](N(C)C)[C@H]1O)[C@@H](C)C(=O)[C@@H](C)C(=O)O[C@@H]2CC`: the MIC in assay [1] is 0.78 µg/mL (≈ 0.914 µM); in assay [2], not above 0.05 µg/mL; in assay [3] it was not above 0.05 µg/mL; in assay [4], 0.1 µg/mL (≈ 0.117 µM); in assay [5] it was more than 50 µg/mL; in assay [6], 3.13 µg/mL (≈ 3.67 µM). In addition, the MIC in assay [7] is not above 0.05 µg/mL; in [8], 1.56 µg/mL (≈ 1.83 µM); in assay [9] it was 0.1 µg/mL (≈ 0.117 µM); in assay [10] it was 0.1 µg/mL (≈ 0.117 µM); in assay [11], not above 0.05 µg/mL; in [12], 0.2 µg/mL (≈ 0.234 µM). Also, the MIC in assay [13] worked out at 0.2 µg/mL (≈ 0.234 µM); in [14], 0.4 µg/mL (≈ 0.469 µM); in assay [15] it was 0.78 µg/mL (≈ 0.914 µM).
For the compound `C=C[C@]12OC(=O)N(CCCCn3ccc4ncccc43)[C@@H]1[C@@H](C)C(=O)[C@H](C)C[C@@](C)(OC)[C@H](O[C@@H]1O[C@H](C)C[C@H](N(C)C)[C@H]1O)[C@@H](C)C(=O)[C@@H](C)C(=O)O[C@@H]2CC`, the MIC in assay [1] was 3.13 µg/mL (≈ 3.93 µM); in assay [2], not above 0.05 µg/mL; in assay [3], not above 0.05 µg/mL; in assay [4], 0.1 µg/mL (≈ 0.125 µM); in assay [5], more than 50 µg/mL; in assay [6], 6.25 µg/mL (≈ 7.84 µM). For the same compound, the MIC is not above 0.05 µg/mL in assay [7]; 0.4 µg/mL (≈ 0.502 µM) in assay [8]; 0.1 µg/mL (≈ 0.125 µM) in [9]; 0.1 µg/mL (≈ 0.125 µM) in assay [10]; not above 0.05 µg/mL in assay [11]; 0.1 µg/mL (≈ 0.125 µM) in [12]. The MIC in [13] was determined as 0.1 µg/mL (≈ 0.125 µM); in [14], 6.25 µg/mL (≈ 7.84 µM); in assay [15] it was 1.56 µg/mL (≈ 1.96 µM).
